In general, IC50 refers to the midpoint of a concentration-inhibition curve.

Consider ten molecules from US20230059136A1, “THE COMPOUNDS AND COMPOSITIONS FOR TREATING CONDITIONS ASSOCIATED WITH NLRP ACTIVITY” (Novartis AG, priority 2018, published 2023).

Structures are written as SMILES. A value given as a limit tells only on which side of the number the result lay.

One test deals with IL-1β production in PMA-differentiated THP-1 cells. The test can be described thus: IL-1β production in PMA-differentiated THP-1 cells stimulated with gramicidin (hTHP-1 assay containing 2% fetal bovine serum). The test is classed as cell-based, human. The conditions noted are these: Homo sapiens, THP-1, Table B1; 2% fetal bovine serum; cells printed as numeric bound; read-out: hTHP-1 IC50 (Average IC50 of compounds in hTHP-1 assay). The method in brief: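 THP-1 cells were differentiated with PMA 20 ng/ml for 16-18 h, then plated at 50,000 cells/well in RPMI with 2% FBS. They were preincubated 1 h with compound (100–0.0017 μM final, 0.37% DMSO), then stimulated with gramicidin 5 μM for 2 h. Supernatant IL-1β was measured by HTRF.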
Take `CC(C)c1cc2c(c(C(C)C)c1CC(=O)N=S(N)(=O)c1cnn3c1OCCC3)COC2` (single isomer, unassigned) [Example 309, (S) or (R)-N-(amino (6,7-dihydro-5H-pyrazolo[5,1-b][1,3]oxazin-3-yl)(oxo)-λ^6-sulfaneylidene)-2-(4,6-diisopropyl-1,3-dihydroisobenzofuran-5-yl)acetamide]: the IC50 was greater than 30 µM.

For the molecule `CC(C)(O)c1ncc(S(N)(=O)=NC(=O)Cc2cc3c(c4c2CCC4)CCC3)s1` (single isomer, unassigned) [Example 314, (S) or (R)-N-(amino(2-(2-hydroxypropan-2-yl)thiazol-5-yl)(oxo)-λ^6-sulfaneylidene)-2-(1,2,3,6,7,8-hexahydro-as-indacen-4-yl)acetamide], the IC50 is greater than 30 µM.

In the case of `CC(C)c1cnc(F)c(C(C)C)c1CC(=O)N=S(N)(=O)c1cnc(C(C)(C)O)s1` (single isomer, unassigned) [Example 316, (S) or (R)-N-(amino(2-(2-hydroxypropan-2-yl)thiazol-5-yl)(oxo)-λ^6-sulfaneylidene)-2-(2-fluoro-3,5-diisopropylpyridin-4-yl)acetamide], the IC50 was greater than 30 µM.

For `CC(C)c1cc2c(c(C(C)C)c1CC(=O)N=S(N)(=O)c1cnc(C(C)(C)O)s1)COC2=O` (single isomer, unassigned) [Example 318, (S) or (R)-N-(amino(2-(2-hydroxypropan-2-yl)thiazol-5-yl)(oxo)-λ^6-sulfaneylidene)-2-(4,6-diisopropyl-1-oxo-1,3-dihydroisobenzofuran-5-yl)acetamide], the IC50 is greater than 30 µM.

The test is the same for the next values; noted with them: Homo sapiens, THP-1, Table B1; 2% fetal bovine serum; class symbols; read-out: hTHP-1 IC50 (Average IC50 of compounds in hTHP-1 assay).
Consider `CC(C)c1cc2c(c(C(C)C)c1CC(=O)N=S(N)(=O)c1cnn3c1OCCC3)COC2` (single isomer, unassigned) [Example 310, (R) or (S)-N-(amino (6,7-dihydro-5H-pyrazolo[5,1-b][1,3]oxazin-3-yl)(oxo)-λ^6-sulfaneylidene)-2-(4,6-diisopropyl-1,3-dihydroisobenzofuran-5-yl)acetamide], for which the IC50 was in the range of 1 to 5 µM.

Regarding `CC(C)(O)c1ncc(S(N)(=O)=NC(=O)Cc2cc3c(c4c2CCC4)CCC3)s1` (single isomer, unassigned) [Example 313, (R) or (S)-N-(amino(2-(2-hydroxypropan-2-yl)thiazol-5-yl)(oxo)-λ^6-sulfaneylidene)-2-(1,2,3,6,7,8-hexahydro-as-indacen-4-yl)acetamide], the IC50 lay within 5 to 30 µM.

For `CC(C)c1cnc(F)c(C(C)C)c1CC(=O)N=S(N)(=O)c1cnc(C(C)(C)O)s1` (single isomer, unassigned) [Example 315, (R) or (S)-N-(amino(2-(2-hydroxypropan-2-yl)thiazol-5-yl)(oxo)-λ^6-sulfaneylidene)-2-(2-fluoro-3,5-diisopropylpyridin-4-yl)acetamide], the IC50 fell in the range of 5 to 30 µM.

In the case of `CC(C)c1cc2c(c(C(C)C)c1CC(=O)N=S(N)(=O)c1cnc(C(C)(C)O)s1)COC2=O` (single isomer, unassigned) [Example 317, (R) or (S)-N-(amino(2-(2-hydroxypropan-2-yl)thiazol-5-yl)(oxo)-λ^6-sulfaneylidene)-2-(4,6-diisopropyl-1-oxo-1,3-dihydroisobenzofuran-5-yl)acetamide], the IC50 was in the range of 1 to 5 µM.

Still in this test, the particulars now being: Table B1; 2% fetal bovine serum; class symbols; read-out: hTHP-1 IC50 (Average IC50 of compounds in hTHP-1 assay).
For `CC(C)c1ccc(F)c(C(C)C)c1CC(=O)N=S(N)(=O)c1cnn2c1OCCC2` (single isomer, unassigned) [Example 311, (S) or (R)-N-(amino (6,7-dihydro-5H-pyrazolo[5,1-b][1,3]oxazin-3-yl)(oxo)-λ^6-sulfaneylidene)-2-(3-fluoro-2,6-diisopropylphenyl) acetamide], the IC50 lay within 5 to 30 µM.

Take `CC(C)c1ccc(F)c(C(C)C)c1CC(=O)N=S(N)(=O)c1cnn2c1OCCC2` (single isomer, unassigned) [Example 312, (R) or (S)-N-(amino (6,7-dihydro-5H-pyrazolo[5,1-b][1,3]oxazin-3-yl)(oxo)-λ^6-sulfaneylidene)-2-(3-fluoro-2,6-diisopropylphenyl) acetamide]: the IC50 lay in the range of 0.2 to 1 µM.
